Laboratory results published in ChEMBL document CHEMBL1201862, “PubChem BioAssay data set” (2004).
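Each compound was tested at five concentrations against cells in 96-well plates for 48 hours. At the GI50, growth is halved.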 Calls of active or inactive are those of the source. No stated cut-off is given here; in the data, active = GI50 up to about 1.1 µM and inactive = higher.

Key:
Assay in all cases: NCI anticancer screen, dose series, 48 h
[1] = test system: SN12C
[2] = test system: RPMI-8226
[3] = test system: Malme-3M
[4] = test system: M14
[5] = test system: EKVX
[6] = test system: Hs-578T
[7] = test system: OVCAR-5
[8] = test system: IGROV-1
[9] = test system: UACC-62
[10] = test system: UO-31
[11] = test system: PC-3
[12] = test system: NCI-H23
[13] = test system: HCT-116
[14] = test system: HT-29
[15] = test system: HL-60
[16] = test system: MOLT-4
[17] = test system: NCI-H460
[18] = test system: UACC-257
[19] = test system: CCRF-CEM
[20] = test system: SK-MEL-5
[21] = test system: DU-145
[22] = test system: HCT-15
[23] = test system: SW-620
[24] = test system: T47D
[25] = test system: NCI-H522
[26] = test system: MDA-MB-435
[27] = test system: MDA-MB-231
[28] = test system: A549
[29] = test system: SF-539
[30] = test system: K562
[31] = test system: RXF 393
[32] = test system: SR
[33] = test system: SNB-75
[34] = test system: ACHN
[35] = test system: OVCAR-8
[36] = test system: U-251
[37] = test system: SK-MEL-2
[38] = test system: NCI-H226
[39] = test system: SF-268
[40] = test system: HOP-92
[41] = test system: NCI/ADR-RES
[42] = test system: KM12
[43] = test system: SK-OV-3
[44] = test system: MCF7
[45] = test system: SF-295
[46] = test system: COLO 205
[47] = test system: 786-0
[48] = test system: MDA-N
[49] = test system: CAKI-1
[50] = test system: SNB-19
[51] = test system: BT-549
[52] = test system: LOX IMVI
[53] = test system: OVCAR-3
[54] = test system: HCC 2998
[55] = test system: A498
[56] = test system: TK-10
[57] = test system: OVCAR-4
[58] = test system: HOP-62
[59] = test system: SK-MEL-28

CC(NC(=O)C(C)C(=O)NCc1ccc(C(F)(F)F)cc1)C(N)=O (stereo not drawn)
GI50 [1]: > 100 µM (inactive) | GI50 [2]: > 100 µM (inactive) | GI50 [3]: 27.9 µM (inactive) | GI50 [4]: > 100 µM (inactive) | GI50 [5]: > 100 µM (inactive) | GI50 [6]: > 100 µM (inactive) | GI50 [7]: > 100 µM (inactive) | GI50 [8]: > 100 µM (inactive) | GI50 [9]: > 100 µM (inactive) | GI50 [10]: > 100 µM (inactive) | GI50 [11]: > 100 µM (inactive) | GI50 [12]: > 100 µM (inactive) | GI50 [13]: > 100 µM (inactive) | GI50 [14]: > 100 µM (inactive) | GI50 [15]: > 100 µM (inactive) | GI50 [16]: > 100 µM (inactive) | GI50 [17]: > 100 µM (inactive) | GI50 [18]: > 100 µM (inactive) | GI50 [19]: > 100 µM (inactive) | GI50 [20]: > 100 µM (inactive) | GI50 [21]: > 100 µM (inactive) | GI50 [22]: > 100 µM | GI50 [23]: > 100 µM (inactive) | GI50 [24]: > 100 µM (inactive) | GI50 [25]: 34.9 µM (inactive) | GI50 [26]: > 100 µM (inactive) | GI50 [27]: > 100 µM (inactive) | GI50 [28]: > 100 µM (inactive) | GI50 [29]: > 100 µM (inactive) | GI50 [30]: > 100 µM (inactive) | GI50 [31]: > 100 µM (inactive) | GI50 [32]: > 100 µM (inactive) | GI50 [33]: 48.1 µM (inactive) | GI50 [34]: > 100 µM (inactive) | GI50 [35]: > 100 µM (inactive) | GI50 [36]: > 100 µM (inactive) | GI50 [37]: > 100 µM (inactive) | GI50 [38]: > 100 µM (inactive) | GI50 [39]: > 100 µM (inactive) | GI50 [40]: > 100 µM (inactive) | GI50 [41]: > 100 µM (inactive) | GI50 [42]: > 100 µM (inactive) | GI50 [43]: > 100 µM (inactive) | GI50 [44]: > 100 µM (inactive) | GI50 [45]: > 100 µM (inactive) | GI50 [46]: > 100 µM (inactive) | GI50 [47]: > 100 µM (inactive) | GI50 [48]: > 100 µM (inactive) | GI50 [49]: > 100 µM (inactive) | GI50 [50]: 63.8 µM (inactive) | GI50 [51]: 84.7 µM (inactive)

O=[N+]([O-])C(Cl)=C/C(=C(\Cl)SCc1ccccc1)[N+](=O)[O-]
GI50 [1]: 18.2 µM (inactive) | GI50 [3]: 20.2 µM (inactive) | GI50 [4]: 20 µM (inactive) | GI50 [5]: 17.7 µM (inactive) | GI50 [52]: 16.5 µM (inactive) | GI50 [6]: 53 µM (inactive) | GI50 [7]: 23.7 µM (inactive) | GI50 [8]: 28.3 µM (inactive) | GI50 [9]: 28.9 µM (inactive) | GI50 [10]: 20.5 µM (inactive) | GI50 [11]: 22.1 µM (inactive) | GI50 [12]: 37.5 µM (inactive) | GI50 [13]: 18.4 µM (inactive) | GI50 [14]: 24.7 µM (inactive) | GI50 [15]: 5.62 µM (inactive) | GI50 [53]: 15.5 µM (inactive) | GI50 [16]: 17.7 µM (inactive) | GI50 [17]: 28.2 µM (inactive) | GI50 [18]: 29 µM (inactive) | GI50 [19]: 3.24 µM (inactive) | GI50 [20]: 20.8 µM (inactive) | GI50 [21]: 31.4 µM (inactive) | GI50 [22]: 18.2 µM | GI50 [23]: 21.2 µM (inactive) | GI50 [24]: 16.9 µM (inactive) | GI50 [25]: 20.7 µM (inactive) | GI50 [26]: 18.5 µM (inactive) | GI50 [27]: 27.7 µM (inactive) | GI50 [54]: 30.6 µM (inactive) | GI50 [28]: 24.8 µM (inactive) | GI50 [55]: 27 µM (inactive) | GI50 [56]: 23.7 µM (inactive) | GI50 [57]: 18.1 µM (inactive) | GI50 [29]: 21 µM (inactive) | GI50 [30]: 13.3 µM (inactive) | GI50 [31]: 10.6 µM (inactive) | GI50 [33]: 49.5 µM (inactive) | GI50 [34]: 17 µM (inactive) | GI50 [35]: 23.5 µM (inactive) | GI50 [36]: 16.7 µM (inactive) | GI50 [37]: 21.5 µM (inactive) | GI50 [38]: 26.8 µM (inactive) | GI50 [39]: 28.6 µM (inactive) | GI50 [40]: 15.4 µM (inactive) | GI50 [58]: 18.9 µM (inactive) | GI50 [41]: 36.7 µM (inactive) | GI50 [42]: 29.5 µM (inactive) | GI50 [43]: 59.7 µM (inactive) | GI50 [44]: 38.2 µM (inactive) | GI50 [45]: 28.6 µM (inactive) | GI50 [59]: 26.3 µM (inactive) | GI50 [46]: 17.8 µM (inactive) | GI50 [47]: 30.5 µM (inactive) | GI50 [48]: 23.4 µM (inactive) | GI50 [49]: 18.1 µM (inactive) | GI50 [50]: 38.4 µM (inactive) | GI50 [51]: 14.7 µM (inactive)
